Publication PMC5361215 (Scientific Reports, 2017)
The star is where a group is joined. X1 = CC(C)CCC[C@@H](C)[C@H]1CC[C@H]2[C@@H]3CC=C4C[C@@H](OC(=O)CCOCCOCCOCCOCCOCCOCCOCCOCCOCCOCCOCCOCCOCCOCCOCCOCCOCCOCCOCCOCCOCCOCCOCCOCCNC(=O)C*)CC[C@]4(C)[C@H]3CC[C@]12C; X2 = CC(C)CCC[C@@H](C)[C@H]1CC[C@H]2[C@@H]3CC=C4C[C@@H](OC(=O)CCOCCOCCOCCOCCNC(=O)C*)CC[C@]4(C)[C@H]3CC[C@]12C; X3 = CC(C)CCC[C@@H](C)[C@H]1CC[C@H]2[C@@H]3CC=C4C[C@@H](OC(=O)C*)CC[C@]4(C)[C@H]3CC[C@]12C

Columns and labels:
[1] = format: physicochemical; conditions: pH 7.4
RBCs = format: binding, human; conditions: pH 7.4; read-out: Apparent Kd towards RBCs
HPIV3 [2] = conditions: 24 h
Vero cells = conditions: for Cytotoxicity in monolayer culture CC50: 24 h
[3] = format: binding; conditions: read-out: Kd, dissociation constant for POPC monolayer
HPIV3 [4] = format: cell-based
[5] = target: uncleaved HPIV3 F (K108G) (Human parainfluenza 3 virus, UniProt P06828, K108G); format: cell-based
uncleaved HPIV3 F (K108G), sequence (P06828 19-539 K108G): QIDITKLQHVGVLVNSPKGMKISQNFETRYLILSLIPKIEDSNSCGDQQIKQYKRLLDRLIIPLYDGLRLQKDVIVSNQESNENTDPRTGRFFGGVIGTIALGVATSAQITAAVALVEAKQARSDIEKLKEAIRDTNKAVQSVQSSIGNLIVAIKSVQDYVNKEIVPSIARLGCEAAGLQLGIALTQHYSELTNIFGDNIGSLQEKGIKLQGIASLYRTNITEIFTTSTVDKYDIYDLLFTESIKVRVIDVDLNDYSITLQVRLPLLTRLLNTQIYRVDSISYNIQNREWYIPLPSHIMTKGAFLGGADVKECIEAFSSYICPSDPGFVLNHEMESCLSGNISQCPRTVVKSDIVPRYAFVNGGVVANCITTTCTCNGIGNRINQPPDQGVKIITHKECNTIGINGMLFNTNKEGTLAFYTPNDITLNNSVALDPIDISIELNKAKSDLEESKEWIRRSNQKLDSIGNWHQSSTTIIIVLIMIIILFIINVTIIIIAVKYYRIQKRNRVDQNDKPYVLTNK

NiV G/F mediated fusion = format: cell-based
NiV = test system: NiV; parameters: species or system Syrian golden hamsters (Mesocricetus auratus); conditions: hamster, in vivo, ip, 2 mg/kg
[6] = hamster, in vivo, ip, 2 mg/kg
in vivo = conditions: female, Syrian golden, hamster, ip, 2 mg/kg
HPIV3 [7] = format: in vivo, cotton rats; conditions: n = 4

| Compound | Blue-shift of ANS emission on titration with peptide [1] [nm] | Kd (RBCs) [nM] | IC50 (HPIV3 [2]) [nM] | IC90 (HPIV3 [2]) [nM] | Cytotoxicity in monolayer culture CC50 (Vero cells) | Kd [3] [nM] | Inhibition of HPIV3 infection in HAE at 1 μM (HPIV3 [4]) | Inhibition of HPIV3 infection in HAE at 10 μM (HPIV3 [4]) | RBCs irreversibly bound (peptide bridging) [5] | also measured |
| --- | --- | --- | --- | --- | --- | --- | --- | --- | --- | --- |
| Ac-VALDPIDISIVLNKAKSDLEESKEWIRRSNGKLDSIGSGSGC(X3)-NH2 [VG-Chol] | 67 | 540 | 0.015 | 0.7 ± 0.26 | 10,000 nM | 62.3 ± 20.3 | – | – | – | – |
| Ac-C(X2)GSGSGVALDPIDISIVLNKAKSDLEESKEWIRRSNGKLDSI-NH2 [Chol-PEG4-VG] | – | – | – | 0.1 ± 0.0001 | >10,000 nM | – | only partial inhibition | no virus was produced at any time after infection | – | – |
| CC[C@H](C)[C@H](NC(=O)[C@H](C)NC(=O)[C@H](CC(N)=O)NC(=O)CNC(=O)[C@H](CC(C)C)NC(=O)[C@H](CC(N)=O)NC(=O)[C@@H](NC(=O)CNC(=O)[C@@H](NC(=O)[C@H](CC(=O)O)NC(=O)[C@H](CC(C)C)NC(=O)[C@H](CCCNC(=N)N)NC(=O)[C@H](CCC(=O)O)NC(=O)[C@H](CC(C)C)NC(=O)[C@H](CO)NC(=O)[C@@H](NC(=O)[C@@H]1CCCN1C(=O)[C@@H]1CCCN1C(C)=O)[C@@H](C)CC)C(C)C)[C@@H](C)O)C(=O)N[C@@H](C)C(=O)N[C@@H](CCCCN)C(=O)N[C@@H](CC(C)C)C(=O)N[C@@H](CCC(=O)O)C(=O)N[C@@H](CC(=O)O)C(=O)N[C@@H](C)C(=O)N[C@@H](CCCCN)C(=O)N[C@@H](CCC(=O)O)C(=O)N[C@@H](CC(C)C)C(=O)N[C@@H](CC(C)C)C(=O)N[C@@H](CCC(=O)O)C(=O)N[C@@H](CO)C(=O)N[C@@H](CO)C(=O)N[C@@H](CC(=O)O)C(=O)N[C@@H](CCC(N)=O)C(=O)N[C@H](C(=O)N[C@@H](CC(C)C)C(=O)N[C@@H](CCCNC(=N)N)C(=O)NCC(=O)N[C@@H](CO)C(=O)NCC(=O)N[C@@H](CO)C(=O)NCC(=O)N[C@@H](CSCC(=O)NCCOCCOCCOCCOCCOCCOCCOCCOCCOCCOCCOCCOCCOCCOCCOCCOCCOCCOCCOCCOCCOCCOCCOCCOCCC(=O)O[C@H]1CC[C@@]2(C)C(=CC[C@H]3[C@@H]4CC[C@H]([C@H](C)CCCC(C)C)[C@@]4(C)CC[C@@H]32)C1)C(N)=O)[C@@H](C)CC [HRCMV PEG 24 Chol, reference compound] | – | – | > 2000 | > 2000 | 2,000 nM | – | – | – | – | – |
| Ac-VALDPIDISIVLNKAKSDLEESKEWIRRSNGKLDSIGSGSGC(X2)-NH2 [VG-PEG4-Chol] | 63 | 440 | 0.03 ± 0.04 | 0.7 ± 0.007 | 4,500 nM | 67.9 ± 14.2 | only partial inhibition | – | more than 50% | Decrease of HPIV3 viral titer in HAE at day 2 after infection (HPIV3 [4]): approximately two logs; Decrease of HPIV3 viral titer in HAE at day 5 (HPIV3 [4]): approximately one log |
| Ac-C(X3)GSGSGVALDPIDISIVLNKAKSDLEESKEWIRRSNGKLDSI-NH2 [Chol-VG] | – | – | 0.06 ± 0.035 | 1.7 ± 0.42 | 9,000 nM | – | – | – | – | RBCs free (released) [5]: 80%; RBCs reversibly bound (HN-receptor engagement only) [5]: 20%; IC50 against NiV fusion (NiV G/F mediated fusion): too little effect to determine an IC50 |
| Ac-VALDPIDISIVLNKAKSDLEESKEWIRRSNGKLDSIGSGSGC(X1)-NH2 [VG-PEG24-Chol] | 58 | 330 | 0.007 ± 0.007 | 0.1 ± 0.0003 | 1,300 nM | 77.6 ± 21.7 | complete inhibition of infection | no virus was produced at any time after infection | looks similar to VG-Chol | Protease degradation, temperature not given (trypsin): increased degradation significantly; Survival of hamsters given lethal NiV (NiV): significantly improved the survival; Peptide in brain (immuno-histofluorescence) [6]: present in brain parenchyma; Peptide in urine [6]: No peptide was detected in the urine; Cmax (in vivo): 120 nM; Concentration at which toxicity on cells appears (Vero cells): 1000 nM; Viral load in cotton rat lungs (HPIV3 [7]): significantly decreased the viral load |
